According to patent US20150284381A1, “AMINO-PYRIDINE-CONTAINING SPLEEN TYROSINE KINASE (SYK) INHIBITORS” (MERCK SHARP & DOHME CORP., priority 2012, published 2015):

Assays:
PGD2 = settings: dosed intranasally, phase I/II study, allergic rhinitis; cited from earlier work
[1] = phase II clinical trial, allergic rhinitis; cited from earlier work
[2] = target: T1, recombinant human GST-Syk (Homo sapiens, UniProt P43405); experiment: Homogeneous Time-Resolved Fluorescence (HTRF) assay for the recombinant human Syk enzyme; assay type: biochemical; settings: recombinant human GST-Syk 5 pM, ATP 25 μM, 45 min at rt, read-out: rhSyk
T1 construct: purchased Carna Biosciences 08-176
Procedure: Homogeneous Time-Resolved Fluorescence (HTRF) Assay for the Recombinant Human Syk Enzyme
A recombinant GST-hSyk fusion protein was used to measure potency of compounds to inhibit human Syk activity. The recombinant human GST-Syk (Carna Biosciences #08-176) (5 pM nominal concentration) was incubated with various concentrations of the inhibitor diluted in DMSO (0.1% final concentration) for 10 minutes at rt in 15 mM Tris-HCl (pH 7.5), 0.01% tween 20, 2 mM DTT in 384 well plate format. To initiate the reaction the biotinylated substrate peptide (250 nM final concentration) that contains the phosphorylation site for Syk was added with magnesium (5 mM final concentration) and ATP (25 μM final concentration). Final volume of the reaction was 10 μL. Phosphorylation of the peptide was allowed to proceed for 45′ at rt. To quench the reaction and detect the phosphorylated product, 2 nM of a Europium-anti-phosphotyrosine antibody (Perkin Elmer #AD0161) and 70 nM SA-APC (Perkin-Elmer #CR130-100) were added together in 15 mM Tris pH 7.5, 40 mM EDTA, 0.01% tween 20. Final volume of the quenching solution was 10 μL. The resulting HTRF signal was measured after 30 minutes on a EnVision (Perkin-Elmer) reader using a time-resolved fluorescence protocol. IC50 was determined following 10-dose titration (10 μM to 0.508 nM) and four parameter logistic curve fitting using an assay data analyzer.

IC50 [2]	SMILES	other results
550 pM	Cc1cc(Nc2cc(C3CC3)ccn2)nc(-c2cnc([C@@]3(O)CCc4cc(C(=O)O)ccc43)s2)c1 [Example 2C, (1R)-1-(5-{6-[(4-cyclopropylpyridin-2-yl)amino]-4-methylpyridin-2-yl}-1,3-thiazol-2-yl)-1-hydroxy-2,3-dihydro-1H-indene-5-carboxylic acid]	–
2000 pM	Cc1cc(Nc2cc(C3CCC(C)CC3)ccn2)nc(-c2cnc([C@@]3(O)CCCc4cc(C(=O)O)ccc43)s2)c1 (stereo partly drawn) [Example 3B, (5R)-5-hydroxy-5-[5-(4-methyl-6-{[4-(4-methylcyclohexyl)pyridin-2-yl]amino}pyridin-2-yl)-1,3-thiazol-2-yl]-5,6,7,8-tetrahydronaphthalene-2-carboxylic acid]	–
60 pM	CCCOc1ccnc(Nc2cc(C)cc(-c3cnc([C@@]4(O)CCc5cc(C(=O)O)ccc54)s3)n2)c1 [Example 2H, (1R)-1-hydroxy-1-(5-{4-methyl-6-[(4-propoxypyridin-2-yl)amino]pyridin-2-yl}-1,3-thiazol-2-yl)-2,3-dihydro-1H-indene-5-carboxylic acid]	–
40 pM	Cc1cc(Nc2cc(-c3cn[nH]c3)ccn2)nc(-c2cnc([C@@]3(O)CCc4cc(C(=O)O)ccc43)s2)c1 [Example 5A, (1R)-1-hydroxy-1-[5-(4-methyl-6-{[4-(1H-pyrazol-4-yl)pyridin-2-yl]amino}pyridin-2-yl)-1,3-thiazol-2-yl]-2,3-dihydro-1H-indene-5-carboxylic acid]	–
160 pM	CCOc1ccnc(Nc2cc(C)cc(-c3cnc([C@@]4(O)CCCc5cc(C(=O)O)ccc54)s3)n2)c1 [Example 2E, (5R)-5-(5-{6-[(4-ethoxypyridin-2-yl)amino]-4-methylpyridin-2-yl}-1,3-thiazol-2-yl)-5-hydroxy-5,6,7,8-tetrahydronaphthalene-2-carboxylic acid]	–
200 pM	CCc1ccnc(Nc2cc(C)cc(-c3cnc([C@@]4(O)CCCc5cc(C(=O)O)ccc54)s3)n2)c1 [Example 2F, (5R)-5-(5-{6-[(4-ethylpyridin-2-yl)amino]-4-methylpyridin-2-yl}-1,3-thiazol-2-yl)-5-hydroxy-5,6,7,8-tetrahydronaphthalene-2-carboxylic acid]	–
2380 pM	COC(=O)c1ccc2c(c1)CCCC2(O)c1ncc(-c2cc(C)cc(Nc3cc(-c4cn[nH]c4)ccn3)n2)s1 (centres unmarked) [Example 4A, Methyl 5-(5-(6-((4-(1H-pyrazol-4-yl)pyridin-2-yl)amino)-4-methylpyridin-2-yl)thiazol-2-yl)-5-hydroxy-5,6,7,8-tetrahydronaphthalene-2-carboxylate]	–
1200 pM	Cc1cc(Nc2cc(-c3cn[nH]c3)ccn2)nc(-c2cnc(C3(O)CCCc4cc(C(=O)O)ccc43)s2)c1 (single isomer, unassigned) [Example 4B-1, 5-Hydroxy-5-[5-(4-methyl-6-{[4-(1H-pyrazol-4-yl)pyridin-2-yl]amino}pyridin-2-yl)-1,3-thiazol-2-yl]-5,6,7,8-tetrahydronaphthalene-2-carboxylic acid]	–
740 pM	CCOc1ccnc(Nc2cc(C)cc(-c3cnc([C@@]4(O)CCc5cc(C(=O)O)ccc54)s3)n2)c1 [Example 2D, (1R)-1-(5-{6-[(4-ethoxypyridin-2-yl)amino]-4-methylpyridin-2-yl}-1,3-thiazol-2-yl)-1-hydroxy-2,3-dihydro-1H-indene-5-carboxylic acid]	–
420 pM	CCCc1ccnc(Nc2cc(C)cc(-c3cnc([C@@]4(O)CCCc5cc(C(=O)O)ccc54)s3)n2)c1 [Example 3E, (5R)-5-hydroxy-5-(5-{4-methyl-6-[(4-propylpyridin-2-yl)amino]pyridin-2-yl}-1,3-thiazol-2-yl)-5,6,7,8-tetrahydronaphthalene-2-carboxylic acid]	–
800 pM	Cc1cc(Nc2cc(-c3cn[nH]c3)ccn2)nc(-c2cnc(C3(O)CCCc4cc(C(=O)O)ccc43)s2)c1 (single isomer, unassigned) [Example 4B-2, 5-Hydroxy-5-[5-(4-methyl-6-{[4-(1H-pyrazol-4-yl)pyridin-2-yl]amino}pyridin-2-yl)-1,3-thiazol-2-yl]-5,6,7,8-tetrahydronaphthalene-2-carboxylic acid]	–

Further lines, the compound ahead of its results:

SMILES	IC50 [2]	other results
Oc1cccc(Nc2ncc(F)c(Nc3cccc(O)c3)n2)c1 [Example R112]	–	PGD2 (PGD2): statistically significant decrease; clinical safety (PGD2): safe across a range of indicators; efficacy versus placebo [1]: lack of efficacy versus placebo
Cc1cc(Nc2cc(C(F)(F)F)ccn2)nc(-c2cnc(C3(O)CCCc4c3ccc(C(=O)O)c4F)s2)c1 (single isomer, unassigned) [Example 1J, (R or S)-1-fluoro-5-hydroxy-5-[5-(4-methyl-6-{[4-(trifluoromethyl)pyridin-2-yl]amino}pyridin-2-yl)-1,3-thiazol-2-yl]-5,6,7,8-tetrahydronaphthalene-2-carboxylic acid]	40 pM	–
Cc1ccnc(Nc2cc(C)cc(-c3cnc([C@@]4(O)CCc5cc(C(=O)O)ccc54)s3)n2)c1 [Example 2A, (1R)-1-hydroxy-1-(5-{4-methyl-6-[(4-methylpyridin-2-yl)amino]pyridin-2-yl}-1,3-thiazol-2-yl)-2,3-dihydro-1H-indene-5-carboxylic acid]	150 pM	–
CCc1ccnc(Nc2cc(C)cc(-c3cnc([C@@]4(O)CCc5cc(C(=O)O)ccc54)s3)n2)c1 [Example 2B, (1R)-1-(5-{6-[(4-ethylpyridin-2-yl)amino]-4-methylpyridin-2-yl}-1,3-thiazol-2-yl)-1-hydroxy-2,3-dihydro-1H-indene-5-carboxylic acid]	170 pM	–
Cc1cc(Nc2cc(C(F)(F)F)ccn2)nc(-c2cnc(C3(O)CCCc4cc(C(=O)O)c(Cl)cc43)s2)c1 (single isomer, unassigned) [Example 1F, (R or S)-3-chloro-5-hydroxy-5-[5-(4-methyl-6-{[4-(trifluoromethyl)pyridin-2-yl]amino}pyridin-2-yl)-1,3-thiazol-2-yl]-5,6,7,8-tetrahydronaphthalene-2-carboxylic acid]	170 pM	–
Cc1cc(Nc2cc(C(F)(F)F)ccn2)nc(-c2cnc(C3(O)CCCc4cc(C(=O)O)c(Br)cc43)s2)c1 (single isomer, unassigned) [Example 1B, 3-Bromo-5-hydroxy-5-[5-(4-methyl-6-{[4-(trifluoromethyl)pyridin-2-yl]amino}pyridin-2-yl)-1,3-thiazol-2-yl]-5,6,7,8-tetrahydronaphthalene-2-carboxylic acid]	510 pM	–
Cc1cc(Nc2cc(C(F)(F)F)ccn2)nc(-c2cnc(C3(O)CCc4cc(C(=O)O)c(F)cc43)s2)c1 (single isomer, unassigned) [Example 1D, (R or S)-6-fluoro-1-hydroxy-1-[5-(4-methyl-6-{[4-(trifluoromethyl)pyridin-2-yl]amino}pyridin-2-yl)-1,3-thiazol-2-yl]-2,3-dihydro-1H-indene-5-carboxylic acid]	670 pM	–
